The target of test [1] is T1, PAR-2 (Homo sapiens, UniProt P55085).
T1 construct: host or cells: HaCaT keratinocytes
T1 sequence (P55085 26-397): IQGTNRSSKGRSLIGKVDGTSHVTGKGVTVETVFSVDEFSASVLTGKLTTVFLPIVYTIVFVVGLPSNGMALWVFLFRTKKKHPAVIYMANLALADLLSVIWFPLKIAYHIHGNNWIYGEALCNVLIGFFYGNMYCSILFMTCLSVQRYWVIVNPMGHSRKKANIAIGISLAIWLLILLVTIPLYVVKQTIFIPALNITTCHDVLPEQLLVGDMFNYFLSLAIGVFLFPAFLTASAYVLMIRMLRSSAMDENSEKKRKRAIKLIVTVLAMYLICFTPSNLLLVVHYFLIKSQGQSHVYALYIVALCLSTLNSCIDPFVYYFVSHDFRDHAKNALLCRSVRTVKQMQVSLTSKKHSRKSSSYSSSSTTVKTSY
In words: Itching relief: inflow of Ca2+ into HaCaT keratinocytes after trypsin or PAR-2 activated peptide. The class given is cell-based. As for the experimental part: One day before the testing, keratinocytes (HaCaT purchased from ATCC) are injected into a 96-well plate at a rate of 4×10^4 cells/well and cultured in an incubator under conditions of 5% CO2 and 37° C. for 24 hours. After 24 hours, the culture plate is washed with HBSS (Hank's Balanced Salt Solution) buffer twice, and a reaction buffer (2 μM Fluo-4-AM, 20% pluronic acid, 2.5 mM probenecid) is added to the cells. The culture plate is kept in an incubator under conditions of 5% CO2 and 37° C. for 30 minutes and allowed to react at the room temperature for 30 minutes. Then, the culture plate is washed with HBSS buffer twice, and the cells are treated with ginsenoside F2 at a concentration (%) as given in Table 25.
After completion of the reaction for 10 minutes, the cells are treated with 2 U/ml trypsin or 5 μM PAR-2 activated peptide (SLIGKV), and then the change of Ca^2+ concentration in the cells for 80 seconds is measured. The measurement method uses FlexStation3® (Molecular Device, U.S.A.). The difference between minimum and maximum flex values for 80 seconds after treatment with 2 U/ml trypsin or 5 μM PAR-2 activated peptide (SLIGKV) in combination with ginsenoside F2 is compared with the difference between minimum and maximum flex values for 80 seconds after treatment with 2 U/ml trypsin or 5 μM PAR-2 activated peptide (SLIGKV) alone.

In test [2] the target is T2, 5α-reductase (Homo sapiens, UniProt P31213).
T2 construct: 3×FLAG; expressed in transfected cells; host or cells: HEK293
T2 sequence (P31213 1-254): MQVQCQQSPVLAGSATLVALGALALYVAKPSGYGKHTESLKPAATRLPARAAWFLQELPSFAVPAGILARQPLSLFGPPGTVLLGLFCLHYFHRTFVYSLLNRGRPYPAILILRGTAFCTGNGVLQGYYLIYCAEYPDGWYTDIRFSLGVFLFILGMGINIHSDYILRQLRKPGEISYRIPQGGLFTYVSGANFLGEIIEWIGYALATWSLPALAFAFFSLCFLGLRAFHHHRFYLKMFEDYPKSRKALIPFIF
In words: 5α-reductase activity inhibition, conversion of [14C]testosterone to DHT in HEK293-5α R2 cells. It is filed as cell-based. The note with it: 2 hours. On the procedure:
In order to evaluate the inhibitory effect on the activity of 5α-reductase, the conversion rate from [^14C]testosterone to [^14C]dihydrotestosterone (DHT) in HEK293-5α R2 cells is measured. P3×FLAG-CMV-5α R2 is transduced into HEK293 cells, which are cultured in a 24-well plate at a rate of 2.5×10^5 cells per well (Park et al., 2003, JDS. Vol. 31, pp. 191-98). The next day, the used culture medium is replaced with a new culture medium containing an enzyme substrate and an inhibitor. The substrate of the culture medium is 0.05 μCi [^14C]testosterone (Amersham Pharmacia Biotech, UK).
To evaluate the degree of 5α-reductase activity inhibition, the cells are treated with ginsenoside F2 and then cultured in a 5% CO2 incubator at 37° C. for 2 hours. In this regard, the negative control is the group not treated with ginsenoside F2, while the positive control is the group treated with finasteride. Subsequently, the culture medium is collected to extract steroids with 800 μl of ethylacetate, and the supernatant organic solvent phase is isolated and dried. The residue is dissolved in 50 μl of ethylacetate and developed on silica plastic sheet kieselgel 60 F254 using an ethylacetate-hexane (1:1) solvent.
The plastic sheet is dried out in the air and measured in regards to the abundance of isotope using a bath system. The dry plastic sheet together with an X-ray film is put in a bath cassette. After one week, the abundance of isotope of testosterone and dihydrotestosterone remaining on the film is measured to calculate the conversion rate and the inhibition rate according to the following mathematical formulas 5 and 6, respectively.

In test [3] the test system is 3T3-L1 cells. In words: Lipogenesis inhibition in 3T3-L1 cells (Sudan III dyeing). The class given is cell-based, mouse. To be noted: caffeine 50 μM; visual evaluation of fat accumulation. As for the experimental part: The mouse fibroblast cell line, 3T3-L1 cells are immobilized in a 6-well culture plate filled with Dulbecco's modified eagle's medium (DMEM) (GIBCO BRL, Life Technologies, Inc.) containing 10% fetal bovine serum (FBS) at an amount of 1×10^5 cells/well. After 2 days, the used medium is replaced with a new DMEM (containing 10% FBS) medium to culture the cells for 2 days. […] After 5 days, the used DMEM medium is replaced with a normal medium (DMEM containing 10% FBS). The cells are cultured and observed until they are morphologically changed into fat cells. In order to evaluate the ginsenoside F2 in regards to the inhibitory effect on the fat accumulation in the fat cells, the completely differentiated 3T3-L1 fat cells are dyed with Sudan III ([…], Sigma-Aldrich). The fat cells are immobilized with 4% para-formaldehyde (pH 7.2) at the room temperature in a phosphate buffer solution. The fat cells are washed with phosphate-buffered saline (PBS) and then dyed with Sudan III. The picture of the fat cells is taken for visual evaluation. The control uses a medium using neither a test substance nor a comparative substance. The comparative control group is treated with 50 μM caffeine. The fat accumulation inhibitory ability is evaluated based on the degree of dying. The degree of dying is graded +++, ++, +, and - in the decreasing order.

The structures appear in SMILES notation.

One may read the inhibition as the drop in the measured response relative to a control, in per cent. With `CC(C)=CCC[C@](C)(O[C@@H]1O[C@H](CO)[C@@H](O)[C@H](O)[C@H]1O)[C@H]1CC[C@]2(C)[C@@H]1[C@H](O)C[C@@H]1[C@@]3(C)CC[C@H](O[C@@H]4O[C@H](CO)[C@@H](O)[C@H](O)[C@H]4O)C(C)(C)[C@@H]3CC[C@]12C` [Ginsenoside F2, ginsenoside F2], the “Inhibition rate (%) on inflow of Ca^2+ into cells, Trypsin (2 U/ml)” value in test [1] (0.05% ginsenoside F2) came to 23%; in test [1] (0.1% ginsenoside F2) it was 30%; in test [1] (1.0% ginsenoside F2) it was 41%. Also, in test [1] (HaCaT, 0.05% ginsenoside F2, read-out: Inhibition rate (%) on inflow of Ca^2+ into cells, PAR-2 activated peptide (5 μM)), the inhibition at 0.05 % came to 26%. In addition, in test [1] (HaCaT, 0.1% ginsenoside F2, read-out: Inhibition rate (%) on inflow of Ca^2+ into cells, PAR-2 activated peptide (5 μM)), the inhibition at 0.1 % stood at 35%. In test [1] (HaCaT, 0.5% ginsenoside F2, read-out: Inhibition rate (%) on inflow of Ca^2+ into cells, PAR-2 activated peptide (5 μM)), the inhibition at 0.5 % came out at 40%. In test [1] (HaCaT, 1.0% ginsenoside F2, read-out: Inhibition rate (%) on inflow of Ca^2+ into cells, PAR-2 activated peptide (5 μM)), the inhibition at 1 % was 47%. In addition, the “Inhibition rate (%)” value in test [2] (5α-reductase activity) is 59.7%. The “Conversion rate (%)” value in test [2] (testosterone to dihydrotestosterone) turned out to be 15.4%. The “Degree of Sudan III staining (visual grade)” value in test [3] was “−”.

Values taken from patent US20150352134A1, “COMPOSITION FOR TOPICAL SKIN APPLICATION CONTAINING GINSENOSIDE F2 DERIVED FROM HYDROPONIC GINSENG” (AMOREPACIFIC CORPORATION, priority 2012, published 2015).
